Measured values as given in US20040138301A1, “Chemical uncouplers for the treatment of obesity” (priority 2002, published 2004).
pEC50: −log10 of the molar value.

Experiments:
FSK-4 cells = experiment: Assay (IV): Glucose utilisation in FSK-4 cells; format: cell-based; conditions: FSK-4 cells; for pEC50: glucose utilisation, 24 hours incubation, read-out: FSK4 EC50; for Emax: maximal efficacy relative to FCCP, read-out: FSK4 Emax (% of FCCP)
isolated mitochondria = experiment: Assay (II): effect of chemical uncouplers on mitochondrial respiration using isolated mitochondria (oxygen consumption); format: biochemical
Experimental: Assay (II)—The Effect of Chemical Uncouplers on Mitochondrial Respiration Using Isolated Mitochondria.
This assay is used to investigate if the increase in glucose utilisation caused by the test compounds observed in the glucose utilisation assay is due to an increase in the respiration of the mitochondria. This is done by measuring oxygen consumption in isolated mitochondria.
A Clark oxygen electrode is used to determine the oxygen consumption. The isolated mitochondria are added to medium containing oxygen and nutrients (e.g. Succinate) and the rate of oxygen consumptions is measured, when stabilized a small amount of ADP is added to increase the respiration and an increase in the rate of oxygen consumption is measured. When the rate of oxygen consumption again has stabilized the test compound is added and a further increase in oxygen consumption is seen. This experiment is done with and without the addition of oligomycin which is an inhibitor of the ATP-synthase. Finally, the test compound is examined without adding ADP. If the test compound stimulates the rate of oxygen consumption in all setups, it is regarded as a chemical uncoupler.

**Q.** What does the source list for `N#CC(C#N)=NNc1ccc(OC(F)(F)F)cc1` [Example 27, Carbonylcyanide p-Trifluoromethoxy-Phenylhydrazone, reference compound]?
**A.** pEC50 (FSK-4 cells): 6.00; Emax (FSK-4 cells): 100%; Mito State-4 (isolated mitochondria): Ok

**Q.** With `N#CC(C#N)=Cc1c[nH]c2ccc(Cl)cc12` [Example 30, 2-((5-Chloro-1H-Indol-3-Yl)Methylene)Malononitrile] as the compound, how does the pEC50 (FSK-4 cells) read?
**A.** The pEC50 was 4.30.

**Q.** What about the Emax (FSK-4 cells) of the same compound?
**A.** Its Emax is 100%.

**Q.** And the “Mito State-4” value (isolated mitochondria)?
**A.** The value was “Ok”.

**Q.** How did the pEC50 (FSK-4 cells) turn out when `N#CC(C#N)=Cc1c(Cl)[nH]c2ccccc12` [Example 34, 2-(2-Chloro-1H-Indol-3-Ylmethylene)-Malononitrile] was run?
**A.** The pEC50 was 6.40.

**Q.** What about the Emax (FSK-4 cells) of the same compound?
**A.** The Emax was 90%.

**Q.** And the “Mito State-4” value (isolated mitochondria)?
**A.** Its value is “Ok”.

**Q.** How did the pEC50 (FSK-4 cells) turn out when `Cc1c(Br)cc(C(C)(C)C)c(O)c1C(=O)Nc1ccc([N+](=O)[O-])cc1Cl` [Example 37, 3-Bromo-5-Tert-Butyl-N-(2-Chloro-4-Nitro-Phenyl)-6-Hydroxy-2-Methyl-Benzamide] was run?
**A.** Its pEC50 is 7.52.

**Q.** And the Emax (FSK-4 cells)?
**A.** Its Emax is 110%.

**Q.** And the “Mito State-4” value (isolated mitochondria)?
**A.** Its value is “Ok”.

**Q.** What does the source list for `Cc1c(Cl)cc(C(C)(C)C)c(O)c1C(=O)Nc1ccc([N+](=O)[O-])cc1C(F)(F)F` [Example 50, 3-Tert-Butyl-5-Chloro-2-Hydroxy-6-Methyl-N-(4-Nitro-2-Trifluoromethyl-Phenyl)-Benzamide]?
**A.** pEC50 (FSK-4 cells): > 7.52; Emax (FSK-4 cells): 75%; Mito State-4 (isolated mitochondria): Ok

**Q.** `Cc1cc(C(C#N)c2ccc(Cl)cc2)c(Cl)cc1NC(=O)c1c(C)c(Br)cc(C(C)(C)C)c1O` (stereo not drawn) [Example 56, 3-Bromo-5-Tert-Butyl-N-{5-Chloro-4-[(4-Chloro-Phenyl)-Cyano-Methyl]-2-Methyl-Phenyl}-6-Hydroxy-2-Methyl-Benzamide] was tested. Which pEC50 (FSK-4 cells) did it give?
**A.** The pEC50 was 5.10.

**Q.** What about the Emax (FSK-4 cells) of the same compound?
**A.** Its Emax is 105%.

**Q.** And the “Mito State-4” value (isolated mitochondria)?
**A.** The value was “Ok”.

**Q.** How did the pEC50 (FSK-4 cells) turn out when `Cc1c(Br)cc(C(C)(C)C)c(O)c1C(=O)Nc1ccc([N+](=O)[O-])cc1C(F)(F)F` [Example 58, 3-Bromo-5-Tert-Butyl-6-Hydroxy-2-Methyl-N-(4-Nitro-2-Trifluoromethyl-Phenyl)-Benzamide] was run?
**A.** The pEC50 was over 7.52.

**Q.** What about the Emax (FSK-4 cells) of the same compound?
**A.** Its Emax is 100%.

**Q.** What about the “Mito State-4” value (isolated mitochondria) of the same compound?
**A.** Its value is “Ok”.

**Q.** What does the source list for `CC(=C(C#N)C#N)c1cc(C(C)(C)C)c(O)c(C(C)(C)C)c1` [Example 75, 2-[1-(3,5-Di-Tert-Butyl-4-Hydroxy-Phenyl)-Ethylidene]-Malononitrile]?
**A.** pEC50 (FSK-4 cells): 6.15; Emax (FSK-4 cells): 75%; Mito State-4 (isolated mitochondria): Ok

**Q.** What does the source list for `CC(C)(C)c1cc(/C=C(\C#N)c2ccc([N+](=O)[O-])cc2)cc(C(C)(C)C)c1O` [Example 77, 3-(3,5-Di-Tert-Butyl-4-Hydroxy-Phenyl)-2-(4-Nitro-Phenyl)-Acrylonitrile]?
**A.** pEC50 (FSK-4 cells): 6.00; Emax (FSK-4 cells): 110%; Mito State-4 (isolated mitochondria): Ok
